Eleven molecules from patent publication US20250034125A1, “COMPOUNDS AND USES THEREOF” (JANSSEN PHARMACEUTICA NV, priority 2019, published 2025) can be followed below.

The target of test [1] is T1, SCD1 (Homo sapiens, UniProt O00767).
T1 construct: host or cells: Saccharomyces cerevisiae ole1Δ strain (W303 pdr1Δ pdr3Δ background), plasmid pRS316, TDH3 promoter
T1 sequence (O00767 1-359): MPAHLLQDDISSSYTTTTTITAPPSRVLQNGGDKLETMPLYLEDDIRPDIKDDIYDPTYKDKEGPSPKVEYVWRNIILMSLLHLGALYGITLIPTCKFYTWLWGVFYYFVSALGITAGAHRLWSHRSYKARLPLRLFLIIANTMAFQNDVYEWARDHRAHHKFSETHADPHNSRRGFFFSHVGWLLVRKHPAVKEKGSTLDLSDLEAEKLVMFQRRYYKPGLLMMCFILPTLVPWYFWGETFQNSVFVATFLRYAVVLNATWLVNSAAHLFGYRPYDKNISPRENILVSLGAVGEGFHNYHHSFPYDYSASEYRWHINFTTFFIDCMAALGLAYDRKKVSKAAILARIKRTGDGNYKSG
The experiment in a line: Growth inhibition of yeast (ole1Δ) expressing human SCD1 as the sole desaturase. To be noted: yeast strain with SCD1 plasmid, OD600 growth read at 40 h; read-out: SCD1 IC50. The test is classed as cell-based.

Test [2] concerns the target T2, SCD5 (Homo sapiens, UniProt Q86SK9).
T2 construct: host or cells: Saccharomyces cerevisiae ole1Δ strain (W303 pdr1Δ pdr3Δ background), plasmid pRS316, TDH3 promoter
T2 sequence (Q86SK9 1-330): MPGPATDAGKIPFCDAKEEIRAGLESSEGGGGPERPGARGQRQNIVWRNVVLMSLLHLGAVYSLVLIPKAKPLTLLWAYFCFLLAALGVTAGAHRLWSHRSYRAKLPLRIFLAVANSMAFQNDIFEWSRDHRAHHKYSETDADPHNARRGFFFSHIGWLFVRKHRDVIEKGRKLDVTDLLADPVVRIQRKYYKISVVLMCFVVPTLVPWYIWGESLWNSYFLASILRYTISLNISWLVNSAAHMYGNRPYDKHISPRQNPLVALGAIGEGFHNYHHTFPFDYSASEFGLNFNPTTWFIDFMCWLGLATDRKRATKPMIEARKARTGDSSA
The experiment in a line: Growth inhibition of yeast (ole1Δ) expressing human SCD5 as the sole desaturase. It counts as cell-based. Conditions: yeast strain with SCD5 plasmid, OD600 growth read at 40 h; read-out: SCD5 IC50.

A value given as a limit tells only on which side of the number the result lay.

In the case of `Cn1nc(-c2noc(N3CCC(Cc4cc(F)cc(F)c4)CC3)n2)ccc1=O` [Compound 122, 6-(5-(4-(3,5-difluorobenzyl)piperidin-1-yl)-1,2,4-oxadiazol-3-yl)-2-methylpyridazin-3(2H)-one], the IC50 in test [1] was 13.6 µM; in test [2], 1.73 µM.

Turning to `Cn1nc(-c2noc(N3CCC(Cc4ccc(F)c(F)c4)CC3)n2)ccc1=O` [Compound 123, 6-(5-(4-(3,4-difluorobenzyl)piperidin-1-yl)-1,2,4-oxadiazol-3-yl)-2-methylpyridazin-3(2H)-one], the IC50 worked out at 4.9 µM in test [1] and 1.4 µM in test [2].

Take `Cn1nc(-c2cnc(N3CCC(Cc4cc(F)cc(F)c4)CC3)o2)ccc1=O` [Compound 124, 6-(2-(4-(3,5-difluorobenzyl)piperidin-1-yl)oxazol-5-yl)-2-methylpyridazin-3(2H)-one]: the IC50 in test [1] is 26 µM; in test [2] it was 0.14 µM.

With `CCn1nc(NC(=O)N2CCC(Cc3cc(F)cc(F)c3)CC2)ccc1=O` [Compound 125, 4-(3,5-difluorobenzyl)-N-(1-ethyl-6-oxo-1,6-dihydropyridazin-3-yl)piperidine-1-carboxamide], the IC50 came out at 4.96 µM in test [1] and 1.15 µM in test [2].

Turning to `Cc1cc(NC(=O)N2CCC(Oc3cc(F)cc(F)c3)CC2)nn(C)c1=O` [Compound 126], the IC50 in test [1] and in test [2] was 0.04 µM each time.

Take `Cc1cc(NC(=O)N2CCC(Oc3ccc(F)c(F)c3)CC2)nn(C)c1=O` [Compound 127]: the IC50 in test [1] and in test [2] was 0.2 µM throughout.

`Cc1cc(NC(=O)N2CCC(Cc3cc(F)cc(F)c3)CC2)nn(C)c1=O` [Compound 128]: the IC50 was found to be 0.05 µM in test [1] and 0.02 µM in test [2].

Consider `Cc1cc(NC(=O)N2CCC(Cc3ccc(F)c(F)c3)CC2)nn(C)c1=O` [Compound 129], for which the IC50 in test [1] came out at 0.31 µM; in test [2], 0.08 µM.

Turning to `Cn1nc(NC(=O)N2CCN(Cc3cccc(Cl)c3)CC2)ccc1=O` [Compound 130, 4-(3-chlorobenzyl)-N-(1-methyl-6-oxo-1,6-dihydropyridazin-3-yl)piperazine-1-carboxamide], the IC50 is > 45 µM in test [1] and 15.8 µM in test [2].

Regarding `Cn1nc(NC(=O)N2CCC=C(c3ccc(Cl)cc3)CC2)ccc1=O` [Compound 133, 4-(4-chlorophenyl)-N-(1-methyl-6-oxo-1,6-dihydropyridazin-3-yl)-2,3,6,7-tetrahydro-1H-azepine-1-carboxamide], the IC50 in test [1] and in test [2] was > 45 µM in each case.

Regarding `Cn1nc(NC(=O)N2CC=C(c3ccc(Cl)cc3)CCC2)ccc1=O` [Compound 134, 5-(4-chlorophenyl)-N-(1-methyl-6-oxo-1,6-dihydropyridazin-3-yl)-2,3,4,7-tetrahydro-1H-azepine-1-carboxamide], the IC50 in test [1] and in test [2] was > 45 µM each time.

One may read the IC50 as the concentration at which inhibition is half-maximal.
